Data: patent publication US12076329B2, “Compositions and methods for enhancing visual function” (The Regents of the University of California, priority 2020, dated 2024)
“Also recorded” adds a separate entry of the source.

Legend:
Halo-mGluR2 = target: T1, Halo-mGluR2 (Rattus norvegicus, UniProt P31421); test: Photoactivation and labeling of Halo-mGluR2, whole cell patch clamp in HEK 293T cells; assay type: cell-based
T1 construct: expressed in transfected cells; host or cells: HEK 293T
Experimental: (§1) Whole cell patch clamp recordings from HEK 293T cells were performed 24-48 hours after transfection as previously described (Farrants et al., 2018). Briefly, voltage clamp recordings at −60 mV were performed in a high potassium (120 mM) solution to enable large inward currents upon receptor activation.
(§2) Unless otherwise noted, cells were incubated with 1-10 μM of PORTL for 45-60 min at 37° C. in the appropriate extracellular recording solution. Labeling efficiency was determined as previously described (Levitz et al., 2017). Illumination was applied to the entire field of view using a CoolLED pE-4000 through a 40× objective. Light intensity in the sample plane was 1-2 mW/mm^2. pClamp software was used for both data acquisition and control of illumination. All drugs were purchased from Tocris and applied using a gravity-driven perfusion system.
With the goal of further expanding the repertoire of PORTLs to a third self-labelling, orthogonal suicide enzyme, the Halo-tag, which reacts specifically with alkyl chlorides (Los et al., 2008), was used. […] Based on the hypothesis that branching Halo-targeting PORTLs would enhance photoswitching, “doubleClAG12” (^2×ClAG12) (Scheme S8 (FIG. 1H); FIG. 2E) was synthesized. […]

CLIP-mGluR2 = target: T2, CLIP-mGluR2 (Rattus norvegicus, UniProt P31421); test: Photoactivation of CLIP-mGluR2, whole cell patch clamp in HEK 293T cells; assay type: cell-based
T2 construct: expressed in transfected cells; host or cells: HEK 293T
T2 sequence (P31421 with tags, fused parts or gaps): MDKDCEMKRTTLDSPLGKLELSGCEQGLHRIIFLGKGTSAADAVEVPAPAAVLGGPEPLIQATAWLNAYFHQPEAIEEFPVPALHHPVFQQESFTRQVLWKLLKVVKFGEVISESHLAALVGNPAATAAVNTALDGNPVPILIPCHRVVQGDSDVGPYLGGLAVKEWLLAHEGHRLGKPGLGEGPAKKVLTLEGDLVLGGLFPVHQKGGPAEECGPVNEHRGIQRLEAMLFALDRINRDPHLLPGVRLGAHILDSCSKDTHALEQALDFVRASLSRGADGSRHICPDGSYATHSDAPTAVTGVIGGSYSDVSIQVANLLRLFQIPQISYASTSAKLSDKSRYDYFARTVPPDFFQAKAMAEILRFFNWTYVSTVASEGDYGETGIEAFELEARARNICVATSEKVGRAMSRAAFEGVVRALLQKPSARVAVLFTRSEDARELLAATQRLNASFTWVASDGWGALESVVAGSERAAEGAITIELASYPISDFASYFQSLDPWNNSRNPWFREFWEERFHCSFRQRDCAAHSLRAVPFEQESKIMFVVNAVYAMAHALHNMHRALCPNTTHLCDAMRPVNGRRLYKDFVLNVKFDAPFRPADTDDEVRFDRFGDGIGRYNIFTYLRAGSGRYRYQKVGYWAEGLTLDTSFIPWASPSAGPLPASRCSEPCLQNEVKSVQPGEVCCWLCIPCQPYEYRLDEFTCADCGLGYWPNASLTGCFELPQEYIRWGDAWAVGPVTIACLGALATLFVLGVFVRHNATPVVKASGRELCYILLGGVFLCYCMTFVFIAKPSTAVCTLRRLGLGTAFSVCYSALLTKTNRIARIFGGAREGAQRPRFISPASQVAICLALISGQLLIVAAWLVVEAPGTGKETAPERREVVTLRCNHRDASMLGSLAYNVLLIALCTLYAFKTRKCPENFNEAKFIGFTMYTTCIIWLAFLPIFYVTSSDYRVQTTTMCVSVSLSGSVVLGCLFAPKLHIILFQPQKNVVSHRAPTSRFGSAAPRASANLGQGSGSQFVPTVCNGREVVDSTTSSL
Experimental: as §1, §2

SNAP-mGluR2 = target: T3, SNAP-mGluR2 (Rattus norvegicus, UniProt P31421); test: Photoactivation of SNAP-mGluR2 read out as GIRK current, whole cell patch clamp in HEK293 cells; assay type: cell-based; settings: specificity: applied to cells expressing SNAP-mGluR2, n=3 cells
T3 construct: expressed in transfected cells; host or cells: HEK293 / HEK 293T, with co-expressed GIRK channel
T3 sequence (P31421 with tags, fused parts or gaps): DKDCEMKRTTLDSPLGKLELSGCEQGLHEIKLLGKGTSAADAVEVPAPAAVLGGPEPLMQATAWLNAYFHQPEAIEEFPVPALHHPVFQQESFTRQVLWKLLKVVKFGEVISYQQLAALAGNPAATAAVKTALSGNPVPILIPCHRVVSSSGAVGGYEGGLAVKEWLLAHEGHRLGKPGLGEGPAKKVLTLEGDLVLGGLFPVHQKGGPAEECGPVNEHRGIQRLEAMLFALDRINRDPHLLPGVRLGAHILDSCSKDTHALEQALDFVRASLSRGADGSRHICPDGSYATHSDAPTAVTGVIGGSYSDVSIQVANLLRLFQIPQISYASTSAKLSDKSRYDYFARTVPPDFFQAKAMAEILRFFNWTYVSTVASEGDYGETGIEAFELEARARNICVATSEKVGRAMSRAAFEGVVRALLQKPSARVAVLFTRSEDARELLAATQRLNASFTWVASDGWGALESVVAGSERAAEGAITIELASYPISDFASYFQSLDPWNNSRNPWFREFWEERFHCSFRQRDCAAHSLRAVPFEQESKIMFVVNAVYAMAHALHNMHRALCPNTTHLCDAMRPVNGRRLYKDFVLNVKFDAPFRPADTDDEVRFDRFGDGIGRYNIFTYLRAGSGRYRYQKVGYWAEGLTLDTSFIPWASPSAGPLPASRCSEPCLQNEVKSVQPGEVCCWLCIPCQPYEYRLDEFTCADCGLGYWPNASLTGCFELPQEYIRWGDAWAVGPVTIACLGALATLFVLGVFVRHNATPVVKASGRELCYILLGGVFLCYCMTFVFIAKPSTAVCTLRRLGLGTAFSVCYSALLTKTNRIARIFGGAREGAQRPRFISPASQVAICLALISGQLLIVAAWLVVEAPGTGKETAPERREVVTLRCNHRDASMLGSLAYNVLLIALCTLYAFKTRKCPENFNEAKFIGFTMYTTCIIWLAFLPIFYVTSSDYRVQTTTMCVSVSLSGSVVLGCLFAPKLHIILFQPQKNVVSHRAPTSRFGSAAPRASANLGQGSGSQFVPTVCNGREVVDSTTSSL
Experimental: as §1, §2
FIG. 3A-3C. Monovalent BGAG12,460 elicits rat SNAP-mGluR2 and human SNAP-mGluR6 GIRK photo-current in HEK293 cells. FIG. 3A. Group II and III mGluRs, like mGluR2 and 6, respectively, couple to GIRK channels in neurons and this system reconstitutes in non-neuronal cell lines, so that SNAP-mGluR2 or 6 coupled to a BGAG photoswitch will be activated by light and induce hyperpolarizing GIRK current. FIG. 3B. Blue (460 nm) light photo-activates BGAG12,460:SNAP-mGluR2 and elicits an inward K+ current from co-expressed GIRK channel in a HEK293 cell voltage clamped at −60 mV with [K+]in=[K+]out=150 mM. FIG. 3C.
FIG. 4A-4D. Multibranched BGAG12,460 increases potency and sensitivity of SNAP-mGluR2 activation of GIRK channels in HEK293 cells. FIG. 4A. ^4×BGAG12,460 consists of a single BG end for 1:1 attachment to SNAP on each subunit of the mGluR and 4 branches of a 12-PEG linker, with each branch bearing a photoswitchable azobenzene-glutamate (AG). FIG. 4B. […] Dependence of SNAP-mGluR2 photo-activation efficiency, read out as GIRK current, with single, 2-branch and 4-branch BGAG12,460. […]

GFP-tagged mGluR2 = test: Nanobody-photoswitch conjugate (NPC)-mediated photoswitching of GFP-tagged mGluR2; assay type: cell-based; settings: SNAP-tagged anti-GFP nanobody labeled with PORTL
Excerpt: Finally, a long-term goal of tethered photopharmacology is to incorporate the optical control afforded by such compounds into antibody-mediated targeting of proteins. “Nanobody-photoswitch conjugates” (NPCs) consisting of a SNAP-tagged nanobody labeled with a PORTL have been reported. NPCs containing an anti-GFP nanobody are able to photoactivate GFP-tagged mGluR2, but with limited efficiency (Farrants et al., 2018).

[1] = test system: RGCs from isolated rd1 retina; test: MEA recordings of RGCs from isolated rd1 retina; assay type: cell-based, mouse; settings: 1 s light flashes
Excerpt: FIG. 10A-10C. MEA recordings of RGCs from isolated rd1 retina with either BGAG12,460:SNAP-mGluR2 or medium wave cone opsin in RGCs. A) Superimposed average responses to 1 s light flashes in dozens of RGCs in 3 representative retinas isolated from: wildtype mice (Wt; red), rd1 mice expressing medium wave (MW) cone opsin in RGCs (black), and rd1 mice expressing SNAP-mGluR2 in RGCs (blue) following intravitreal injection of BGAG12,460. […] B) Blue light activation of BGAG12,460:SNAP-mGluR2 evokes an immediate inhibition with a sustained amplitude during illumination, followed by a transient excitatory rebound after termination of illumination. […] As light pulses are shortened, the delay to peak response increases and deactivation slows, (from (Berry et al. (2019) supra).

[2] = test system: rd1 animals expressing medium wave cone opsin in RGCs; test: Line pattern recognition in moving displays, medium wave cone opsin in RGCs; assay type: in vivo, mouse; settings: expressed in RGCs of rd1 animals
Excerpt: The kinetics of onset, decay and recovery of the restored light response are expected to affect the ability to recognize a visual pattern. […] Thus, the speed limit of ^4×BGAG12,460:SNAP-mGluR2 in RGCs is ≥8 cm/s, whereas that of medium wave cone opsin in RGCs is ≤4 cm/s.

[3] = test system: rd1 animals expressing medium wave cone opsin in RGCs; settings: Berry et al. (2019); cited from earlier work

T1 sequence (P31421 with tags, fused parts or gaps): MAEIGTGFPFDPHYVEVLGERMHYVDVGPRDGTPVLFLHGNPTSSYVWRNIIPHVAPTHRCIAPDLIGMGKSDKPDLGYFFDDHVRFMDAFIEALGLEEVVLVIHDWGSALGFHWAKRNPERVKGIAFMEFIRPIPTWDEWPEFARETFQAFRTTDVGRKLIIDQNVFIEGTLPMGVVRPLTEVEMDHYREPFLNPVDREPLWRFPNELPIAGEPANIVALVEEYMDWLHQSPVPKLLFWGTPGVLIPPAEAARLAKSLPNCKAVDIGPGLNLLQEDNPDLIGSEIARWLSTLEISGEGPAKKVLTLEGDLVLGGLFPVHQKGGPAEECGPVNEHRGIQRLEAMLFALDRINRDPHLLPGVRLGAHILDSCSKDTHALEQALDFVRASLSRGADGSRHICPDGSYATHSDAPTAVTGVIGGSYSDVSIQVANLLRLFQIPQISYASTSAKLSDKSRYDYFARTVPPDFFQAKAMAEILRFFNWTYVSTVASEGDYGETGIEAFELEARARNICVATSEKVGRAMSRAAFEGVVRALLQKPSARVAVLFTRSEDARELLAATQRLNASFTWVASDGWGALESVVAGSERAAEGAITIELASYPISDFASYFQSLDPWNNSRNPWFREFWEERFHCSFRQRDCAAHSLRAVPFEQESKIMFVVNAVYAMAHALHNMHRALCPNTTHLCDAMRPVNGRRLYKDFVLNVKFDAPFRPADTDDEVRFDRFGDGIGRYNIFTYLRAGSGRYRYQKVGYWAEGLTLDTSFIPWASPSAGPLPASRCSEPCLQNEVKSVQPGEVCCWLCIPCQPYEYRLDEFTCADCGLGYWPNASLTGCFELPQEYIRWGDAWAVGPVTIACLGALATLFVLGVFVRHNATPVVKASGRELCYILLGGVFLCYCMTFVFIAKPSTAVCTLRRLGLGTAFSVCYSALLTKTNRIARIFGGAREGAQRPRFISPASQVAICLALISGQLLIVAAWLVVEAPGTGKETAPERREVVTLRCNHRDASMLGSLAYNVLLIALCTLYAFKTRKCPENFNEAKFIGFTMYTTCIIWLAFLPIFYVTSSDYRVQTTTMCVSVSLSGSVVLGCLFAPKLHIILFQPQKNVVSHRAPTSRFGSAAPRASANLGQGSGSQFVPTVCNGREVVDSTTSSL

## N[C@@H](C[C@H](CCCC(=O)Nc1ccc(/N=N/c2ccc(NC(=O)CNC(=O)CCOCCOCCOCCOCCOCCOCCOCCOCCOCCOCCOCCOCCNC(=O)CCCC(=O)NCCOCCOCCCCCCCl)cc2)cc1)C(=O)O)C(=O)O [ClAG12, (2S,4S)-2-Amino-4-(4-((4-((E)-(4-(61-chloro-4,44,48-trioxo-7,10,13,16,19,22,25,28,31,34,37,40,52,55-tetradecaoxa-3,43,49-triazahenhexacontanamido)phenyl)diazenyl)phenyl)amino)-4-oxobutyl)pentanedioic acid]
Halo-mGluR2
  photoactivation of Halo-mGluR2: showed photoactivation of mGluR2

## Nc1ccnc(OCc2ccc(CNC(=O)CCC(=O)N3Cc4ccccc4-c4nnn(CCOCCOCCOCCOCCOCCOCCOCCOCCOCCOCCOCCOCCC(=O)N[C@H](CCC(=O)NCC(=O)Nc5ccc(/N=N/c6ccc(NC(=O)CCC[C@@H](C[C@H](N)C(=O)O)C(=O)O)cc6)cc5)C(=O)NCC(=O)Nc5ccc(/N=N/c6ccc(NC(=O)CCC[C@@H](C[C@H](N)C(=O)O)C(=O)O)cc6)cc5)c4-c4ccccc43)cc2)n1 [^2×BCAG12]
CLIP-mGluR2
  optical control / efficiency of photoactivation of CLIP-mGluR2: near-complete optical control; also recorded: enhances efficiency of CLIP-mGluR2 photoactivation compared to BCAG12
SNAP-mGluR2
  photocurrent relative to 1 mM glutamate: 2.8±0.3%

## Nc1nc(OCc2ccc(CNC(=O)CCCC(=O)NCCOCCOCCOCCOCCOCCOCCOCCOCCOCCOCCOCCOCCC(=O)N[C@H](CCC(=O)NCC(=O)Nc3ccc(/N=N/c4ccc(NC(=O)CCC[C@@H](C[C@H](N)C(=O)O)C(=O)O)cc4)cc3)C(=O)NCC(=O)Nc3ccc(/N=N/c4ccc(NC(=O)CCC[C@@H](C[C@H](N)C(=O)O)C(=O)O)cc4)cc3)cc2)c2nc[nH]c2n1 [^2×BGAG12]
GFP-tagged mGluR2
  photoswitch efficiency of NPC-mediated photoswitching of mGluR2: doubled the photoswitch efficiency

B1: medium wave cone opsin: medium wave (MW) cone opsin expressed in RGCs of rd1 mice, comparator light-activated GPCR (protein, UniProt O35599 1-359, looked up)
Medium-wave-sensitive opsin 1: MAQRLTGEQTLDHYEDSTHASIFTYTNSNSTKGPFEGPNYHIAPRWVYHLTSTWMILVVVASVFTNGLVLAATMRFKKLRHPLNWILVNLAVADLAETIIASTISVVNQIYGYFVLGHPLCVIEGYIVSLCGITGLWSLAIISWERWLVVCKPFGNVRFDAKLATVGIVFSWVWAAIWTAPPIFGWSRYWPYGLKTSCGPDVFSGTSYPGVQSYMMVLMVTCCIFPLSIIVLCYLQVWLAIRAVAKQQKESESTQKAEKEVTRMVVVMVFAYCLCWGPYTFFACFATAHPGYAFHPLVASLPSYFAKSATIYNPIIYVFMNRQFRNCILHLFGKKVDDSSELSSTSKTEVSSVSSVSPA
[1]
  latency of RGC response to light onset: delayed response
[2]
  line pattern recognition when the display moved at 4 cm/s: performed at the level of the untreated rd1 animals
  speed limit of line pattern recognition in moving displays: ≤ 4 cm/s
[3]
  line pattern recognition when the displays move at 1 cm/s: perform well
